Assay results published in ChEMBL document CHEMBL2417440, “Experimental and structural testing module to analyze paralogue-specificity and affinity in the Hsp90 inhibitors series” (J Med Chem, 2013).
pIC50, pKd: −log10 of the molar value. The source made the active and inactive calls. No cut-off for these calls is given here.

Assays:
[1] = target: T1, Heat shock protein HSP90 (Homo sapiens) (UniProt P07900+P08238); assay: Binding affinity to HSP90 in human SKBR3 cell lysates at 3 nM up to 24 hrs by fluorescence polarization assay; format: protein assay; settings: SK-BR-3
[2] = target: T2, Endoplasmin (Canis lupus familiaris, UniProt P41148)
[3] = target: T3, Heat shock protein 75 kDa, mitochondrial (Homo sapiens, UniProt Q12931)
T3 sequence (Q12931 whole entry): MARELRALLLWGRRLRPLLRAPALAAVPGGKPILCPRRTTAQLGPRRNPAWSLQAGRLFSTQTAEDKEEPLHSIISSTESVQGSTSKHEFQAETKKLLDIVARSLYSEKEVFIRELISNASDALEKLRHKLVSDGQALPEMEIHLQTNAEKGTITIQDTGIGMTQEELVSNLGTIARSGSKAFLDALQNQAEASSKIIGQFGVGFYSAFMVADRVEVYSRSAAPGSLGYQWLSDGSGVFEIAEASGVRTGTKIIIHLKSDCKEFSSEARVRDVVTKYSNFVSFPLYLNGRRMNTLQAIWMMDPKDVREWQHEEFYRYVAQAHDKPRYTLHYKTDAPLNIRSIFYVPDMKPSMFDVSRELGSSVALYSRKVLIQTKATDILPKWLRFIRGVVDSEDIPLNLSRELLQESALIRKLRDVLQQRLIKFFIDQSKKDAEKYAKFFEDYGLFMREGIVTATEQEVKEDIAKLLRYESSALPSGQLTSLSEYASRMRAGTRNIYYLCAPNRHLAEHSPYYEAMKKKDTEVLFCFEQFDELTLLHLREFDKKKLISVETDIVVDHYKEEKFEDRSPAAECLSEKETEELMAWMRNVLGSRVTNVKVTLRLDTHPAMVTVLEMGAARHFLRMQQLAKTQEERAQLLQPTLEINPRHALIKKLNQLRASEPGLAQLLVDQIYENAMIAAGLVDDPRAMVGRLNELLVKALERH

[4] = target: T2, Endoplasmin; assay: Binding affinity to dog Grp94 by fluorescence polarization assay; settings: read-out: Kd(app)
[5] = target: T4, Heat shock protein HSP 90-beta (Homo sapiens, UniProt P08238); assay: Binding affinity to recombinant HSP90beta (unknown origin) by fluorescence polarization assay; settings: read-out: Kd(app)
[6] = target: T5, Heat shock protein HSP 90-alpha (Homo sapiens, UniProt P07900); assay: Binding affinity to HSP90alpha (unknown origin) by fluorescence polarization assay; settings: read-out: Kd(app)
[7] = target: T3, Heat shock protein 75 kDa, mitochondrial; remark: listed apart in the source
Description: Binding affinity to recombinant human Trap-1 by fluorescence polarization assay

[8] = target: T1, Heat shock protein HSP90 (Homo sapiens); assay: Binding affinity to HSP90 in human SKBR3 cell lysates at 3 nM after 8 hrs by fluorescence polarization assay; format: protein assay; settings: SK-BR-3
[9] = target: Endoplasmin (Homo sapiens) (UniProt P14625); assay: Binding affinity to GRP94 (unknown origin)
[10] = target: T4, Heat shock protein HSP 90-beta; assay: Binding affinity to HSP90beta (unknown origin)
[11] = target: T5, Heat shock protein HSP 90-alpha; assay: Binding affinity to HSP90alpha (unknown origin)
[12] = target: T1, Heat shock protein HSP90 (Homo sapiens); assay: Binding affinity to HSP90 (unknown origin); format: protein assay
[13] = target: T4, Heat shock protein HSP 90-beta
[14] = target: T5, Heat shock protein HSP 90-alpha
[15] = target: T6, Heat shock protein 75 kDa, mitochondrial (Homo sapiens) (UniProt Q12931); assay: Binding affinity to TRAP1 (unknown origin)
T6 sequence (whole entry): T3 sequence (Q12931 whole entry)

[16] = species: Homo sapiens; assay: Ratio of binding affinity to HASP90 (unknown origin) to TRAP1 (unknown origin)

T4 sequence (P08238 whole entry): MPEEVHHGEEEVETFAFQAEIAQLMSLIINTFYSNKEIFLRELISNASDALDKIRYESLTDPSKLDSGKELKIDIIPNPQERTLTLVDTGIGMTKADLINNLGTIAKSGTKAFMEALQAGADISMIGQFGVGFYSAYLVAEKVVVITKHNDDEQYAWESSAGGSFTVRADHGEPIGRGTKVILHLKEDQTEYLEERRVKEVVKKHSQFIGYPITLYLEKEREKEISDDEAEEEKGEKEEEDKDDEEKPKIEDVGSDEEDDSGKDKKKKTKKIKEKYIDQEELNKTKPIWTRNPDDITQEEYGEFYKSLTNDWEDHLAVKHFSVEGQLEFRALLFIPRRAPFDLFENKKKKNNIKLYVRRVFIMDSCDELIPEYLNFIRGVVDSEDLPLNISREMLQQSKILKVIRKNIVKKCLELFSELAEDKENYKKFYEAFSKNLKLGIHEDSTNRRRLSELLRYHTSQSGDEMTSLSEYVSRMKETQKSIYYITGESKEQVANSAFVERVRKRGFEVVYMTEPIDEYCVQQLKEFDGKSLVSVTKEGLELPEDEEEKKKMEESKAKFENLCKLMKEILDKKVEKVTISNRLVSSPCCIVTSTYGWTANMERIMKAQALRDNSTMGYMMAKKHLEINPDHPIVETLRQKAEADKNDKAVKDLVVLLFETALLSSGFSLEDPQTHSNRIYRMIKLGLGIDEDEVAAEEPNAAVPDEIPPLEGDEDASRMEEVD
T2 sequence (P41148 whole entry): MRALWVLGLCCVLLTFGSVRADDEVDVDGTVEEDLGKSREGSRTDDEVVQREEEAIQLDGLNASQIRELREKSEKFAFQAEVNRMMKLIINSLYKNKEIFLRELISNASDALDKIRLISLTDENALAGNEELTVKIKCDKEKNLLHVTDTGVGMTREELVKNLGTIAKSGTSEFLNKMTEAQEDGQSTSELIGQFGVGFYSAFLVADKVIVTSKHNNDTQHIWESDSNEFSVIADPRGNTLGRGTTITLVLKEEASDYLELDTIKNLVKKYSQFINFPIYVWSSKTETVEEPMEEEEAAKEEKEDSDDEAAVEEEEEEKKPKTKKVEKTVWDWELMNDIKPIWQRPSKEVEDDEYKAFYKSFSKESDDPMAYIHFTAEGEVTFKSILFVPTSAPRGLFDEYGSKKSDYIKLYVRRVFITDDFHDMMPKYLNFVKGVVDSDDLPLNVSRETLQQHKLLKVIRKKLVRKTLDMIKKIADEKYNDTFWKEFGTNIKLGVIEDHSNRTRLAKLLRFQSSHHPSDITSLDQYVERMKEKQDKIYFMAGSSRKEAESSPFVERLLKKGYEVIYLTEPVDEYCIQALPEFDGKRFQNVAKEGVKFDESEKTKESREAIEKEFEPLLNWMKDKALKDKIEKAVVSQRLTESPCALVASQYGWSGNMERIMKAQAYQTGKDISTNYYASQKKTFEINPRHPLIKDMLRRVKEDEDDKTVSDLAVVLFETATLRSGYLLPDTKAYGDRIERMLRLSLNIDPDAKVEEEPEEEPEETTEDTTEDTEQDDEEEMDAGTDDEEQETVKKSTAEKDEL
Chain of Endoplasmin (Homo sapiens) (P14625 whole entry): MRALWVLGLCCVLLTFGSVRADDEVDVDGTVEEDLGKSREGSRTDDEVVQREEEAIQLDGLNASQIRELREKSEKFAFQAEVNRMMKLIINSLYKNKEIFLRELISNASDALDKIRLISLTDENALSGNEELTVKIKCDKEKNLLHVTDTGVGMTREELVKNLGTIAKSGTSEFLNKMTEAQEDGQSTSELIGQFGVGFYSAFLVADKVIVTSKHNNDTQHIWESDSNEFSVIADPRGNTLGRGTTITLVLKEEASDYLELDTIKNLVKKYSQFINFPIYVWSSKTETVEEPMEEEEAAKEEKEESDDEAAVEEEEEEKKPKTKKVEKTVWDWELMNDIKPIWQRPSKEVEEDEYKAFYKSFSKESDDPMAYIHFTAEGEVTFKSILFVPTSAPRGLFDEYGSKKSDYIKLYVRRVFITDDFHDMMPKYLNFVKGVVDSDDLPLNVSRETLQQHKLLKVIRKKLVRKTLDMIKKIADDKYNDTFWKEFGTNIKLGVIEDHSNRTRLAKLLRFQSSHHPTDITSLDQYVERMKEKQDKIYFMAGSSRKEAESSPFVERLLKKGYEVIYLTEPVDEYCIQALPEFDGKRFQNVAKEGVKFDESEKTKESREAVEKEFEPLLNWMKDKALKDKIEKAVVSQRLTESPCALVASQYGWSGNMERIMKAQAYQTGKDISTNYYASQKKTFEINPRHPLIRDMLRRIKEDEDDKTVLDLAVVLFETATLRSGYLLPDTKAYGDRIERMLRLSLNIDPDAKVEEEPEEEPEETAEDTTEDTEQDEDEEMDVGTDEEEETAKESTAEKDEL

SMILES	Activity [1]	pIC50 [2]	pIC50 [3]	pKd [4]	pKd [5]	pKd [6]	further results
Nc1ncnc2c1nc(Sc1cc3c(cc1I)OCO3)n2CCCCCCCCNC(=S)Nc1ccc(-c2c3ccc(=O)cc-3oc3cc(O)ccc23)c(C(=O)O)c1	inactive						
Nc1ncnc2c1nc(Sc1cc3c(cc1I)OCO3)n2CCCCNC(=S)Nc1ccc(-c2c3ccc(=O)cc-3oc3cc(O)ccc23)c(C(=O)O)c1	Active						
CC(C)c1cc(-c2n[nH]c(=O)n2-c2ccc3c(ccn3C)c2)c(O)cc1O [GANETESPIB]		8.00					
C=CCNC1=C2C[C@@H](C)C[C@H](OC)[C@H](O)[C@@H](C)/C=C(\C)[C@H](OC(N)=O)[C@@H](OC)/C=C\C=C(/C)C(=O)NC(=CC1=O)C2=O [TANESPIMYCIN]		7.51	5.83				
CC(C)N(CCCn1c(Sc2cc3c(cc2I)OCO3)nc2c(N)ncnc21)C(=S)Nc1ccc(-c2c3ccc(=O)cc-3oc3cc(O)ccc23)c(C(=O)O)c1	Active			7.51	8.55	8.41	pKd [7]: 8.24
Nc1ncnc2c1nc(Sc1cc3c(cc1I)OCO3)n2CCCNC(=S)Nc1ccc(-c2c3ccc(=O)cc-3oc3cc(O)ccc23)c(C(=O)O)c1	Active			8.18	8.80	8.85	Activity [8]: Active
Nc1ncnc2c1ncn2[C@@H]1O[C@H](COP(=O)(O)OP(=O)(O)O)[C@@H](O)[C@H]1O [ADENOSINE DIPHOSPHATE]		4.94	4.25				Activity [9]: 2.3 µM; Activity [10]: 34 µM; Activity [11]: 51 µM; Activity [12]: 41 µM; pIC50 [13]: 4.38; pIC50 [14]: 4.23
Nc1ncnc2c1nc(Sc1cc3c(cc1I)OCO3)n2CCCCCCNC(=S)Nc1ccc(-c2c3ccc(=O)cc-3oc3cc(O)ccc23)c(C(=O)O)c1	Active						
Nc1ncnc2c1ncn2[C@@H]1O[C@H](COP(=O)(O)OP(=O)(O)OP(=O)(O)O)[C@@H](O)[C@H]1O [ADENOSINE TRIPHOSPHATE]		5.49	4.50				Activity [15]: 31.3 µM; Ratio [16]: 10; Activity [9]: 3.4 µM; Activity [12]: 840 µM; pIC50 [13]: 3.05; pIC50 [14]: 3.06
CO[C@H]1/C=C\C=C(/C)C(=O)NC2=CC(=O)C(NCCCCNC(=O)Cc3ccc4c(c3)C(C)(C)C3=[N+]4CCC4OC5CCN6C(=C5C=C34)C(C)(C)c3cc(S(=O)(=O)[O-])ccc36)=C(C[C@@H](C)C[C@H](OC)[C@H](O)[C@@H](C)/C=C(\C)[C@@H]1OC(N)=O)C2=O (stereo partly specified)				8.60	8.66	9.15	pKd [7]: 7.29
